This is an account of results in patent EP0668872B1 (priority 1992, dated 1994).

The experiment has as its system calcium channels. The following applies: read-out: IC50 values for blocking calcium channels; cerebellar granule cells of 8 day old rats, 6, 7 and 8 days of culture; fura2/AM fluorescence, 37°C.

As a reminder, the IC50 is the concentration that gives 50% inhibition. As for `COc1ccc(CCN(C)CCCC(C#N)(c2ccc(OC)c(OC)c2)C(C)C)cc1OC` (stereo not shown) [Verapamil], the IC50 amounted to 4.8 µM.
